Measured values taken from patent publication US20250041291A1, “COMPOSITIONS AND METHODS FOR TREATING CANCER” (Emmaus Life Sciences, Inc, priority 2021, published 2025).

What was measured:
Assay type in all cases: cell-based
[1] = test system: MOLM-13 cells (adult acute myeloid leukemia) expressing the FLT3-ITD mutation; assay: caspase 3/7 activity (apoptosis) in MOLM-13 cells expressing FLT3-ITD
Method: (§1) In this example, MOLM-13 cells (adult acute myeloid leukemia) expressing the FLT3-ITD mutation were used to test Compound A to decrease their cell proliferation and increase their apoptosis level. Midostaurin (mido), an inhibitor of FLT3, was used as a positive control.
(§2) MOLM-13 cells were cultured in RPMI1640, red phenol free, in presence of 2, 10 and 25% of fetal bovine serum (FBS). 25% FBS simulates the level of serum present in the blood. Adipose stromal cells (ASC) and human fibroblast primary cells were used as reference controls. Compound A, at various concentrations (0.05 to 100 μM), was added to the cells and incubated for 24 h, with or without the co-treatment with olaparib (a PARP inhibitor, Ola). Olaparib or ibrutinib (a BTK inhibitor) alone was also tested with these cells.

[2] = test system: human adipose stromal cells (ASC); assay: caspase 3/7 activity (apoptosis) in human adipose stromal cells; settings: 25% FBS, 24 h; for activity of caspase 3 or 7 / induction of apoptosis in ASC: all tested concentrations (up to 100 μM)
Method: as §2

[3] = test system: human adipose stromal cells (ASC); assay: cell number (proliferation) of human adipose stromal cells after 24 h treatment; settings: 25% FBS; for ASC growth / ASC number as compared to vehicle control: at 100 μM
Method: as §2

[4] = test system: MOLM-13 cells (adult acute myeloid leukemia) expressing the FLT3-ITD mutation; assay: cell number (proliferation) of MOLM-13 cells expressing FLT3-ITD
Method: as §1, §2

[5] = test system: MWCL-1 cells (adult Waldenström macroglobulinemia cells) expressing the Myd88 L265P mutation; assay: caspase 3/7 activity (apoptosis) in MWCL-1 cells expressing Myd88 L265P
Method: (§3) In this study, MWCL-1 cells (adult Waldenström macroglobulinemia cells) expressing the Myd88 L265P mutation were used to test different drugs for their effects on cell proliferation and apoptosis. Midostaurin (an inhibitor of FLT3, mido) was used as reference control.
(§4) MWCL-1 cells were cultured in RPMI1640, in presence of 2, 10 and 25% of fetal bovine serum (FBS). The number of MWCL-1 cells decreased only at higher Compound A concentration (50 and 100 μM), during a 24 h treatment, at 2, 10 and 25% FBS (FIGS. 6A, 7A and 8A). Also, the levels of caspase 3/7 activity in the cells were elevated only at the higher concentrations (50 and 100 μM, FIGS. 6B, 7B and 8B), which is consistent with the decreased cell growth.

[6] = test system: human fibroblast primary cells; assay: caspase 3/7 activity (apoptosis) in human fibroblast primary cells; settings: 25% FBS, 24 h
Method: as §2

[7] = test system: human fibroblast primary cells; assay: cell growth (proliferation) of human fibroblast primary cells; settings: at 100 μM, but not at lower concentrations; 25% FBS; 24 h
Method: as §2

[8] = test system: MWCL-1 cells (adult Waldenström macroglobulinemia cells) expressing the Myd88 L265P mutation; assay: cell number (proliferation) of MWCL-1 cells expressing Myd88 L265P
Method: as §3, §4

[9] = alone, at 10 μM, 2, 10 or 25% FBS
[10] = 1 to 100 μM, dose-dependent, 2% or 10% FBS, 24 h

Compound | apoptotic levels of MOLM-13 cells [1, 9] | activity of caspase 3 or 7 / induction of apoptosis in ASC [2] | ASC growth / ASC number as compared to vehicle control [3] | numbers of MOLM-13 cells [4, 9] | caspase 3/7 activity in MWCL-1 cells ([5]; at 50, 100 μM, 25% FBS) | level of caspase 3/7 activity in MOLM-13 cells [1, 10] | apoptosis of the fibroblasts ([6]; tested concentrations) | cell number increase of human ASC as compared to vehicle control ([3]; at 50 and 100 μM but not at lower concentrations) | numbers of MOLM-13 cells [4, 10] | response of MOLM-13 cells to anti-cancer effects (proliferation and apoptosis) ([4]; 25% FBS, 24 h) | efficiency compared with the other compound (cell numbers and caspase 3/7 activity, MOLM-13) ([4]; at higher doses) | cell growth of human fibroblast primary cells [7] | levels of caspase 3/7 activity in MWCL-1 cells ([5]; only at 50 and 100 μM, 24 h, 2, 10 and 25% FBS) | efficiency compared with midostaurin (MWCL-1 cell number and caspase 3/7 activity) ([8]; both at 100 μM, 25% FBS) | number of MWCL-1 cells ([8]; only at 50 and 100 μM, 24 h treatment, 2, 10 and 25% FBS) | apoptosis (caspase 3/7 activities) of ASC ([2]; at 100 μM, but not at lower concentrations) | caspase 3/7 activities in the fibroblasts ([6]; at 100 μM)
4-[(3-[(4-cyclopropylcarbonyl)piperazin-1-yl]carbonyl)-4-fluorophenyl]methyl(2H)phthalazin-1-one [olaparib, reference compound] | increased the apoptotic levels | did not induce apoptosis | inhibited ASC growth | did not decrease | increased the caspase 3/7 activity | – | – | – | – | – | – | – | – | – | – | – | –
CN1CCN(C(=O)CCCc2cn(-c3ccccc3)c(NC(=O)c3cccc(-c4cnn(C)c4)c3)n2)CC1 [Compound A, 3-(1-methyl-1H-pyrazol-4-yl)-N-(4-(4-(4-methylpiperazin-1-yl)-4-oxobutyl)-1-phenyl-1H-imidazol-2-yl)benzamide] | – | did not change the activity of caspase 3 or 7 | – | – | – | elevated | No apoptosis | slower cell number increase | decreased | responded to the anti-cancer effects | more efficient at higher doses than midostaurin | slower cell growth | elevated | more efficient than midostaurin | decreased | – | –
C=CC(=O)N1CCC[C@@H](n2nc(-c3ccc(Oc4ccccc4)cc3)c3c(N)ncnc32)C1 [ibrutinib, 1-[(3R)-3-[4-Amino-3-(4-phenoxyphenyl)-1H-pyrazolo[3,4-d]pyrimidin-1-yl]piperidin-1-yl]prop-2-en-1-one] | – | – | decrease of ASC number | – | – | – | – | – | – | – | – | – | – | – | – | induced apoptosis | increased the caspase 3/7 activities
